Reference: publication PMC11222147, “Host defence peptide plectasin targets bacterial cell wall precursor lipid II by a calcium-sensitive supramolecular mechanism” (Nature Microbiology, 2024)
Where a SMILES comes first, the peptide text is derived from it. Bridges are numbered along the chain shown (N, C = ends).

Assays:
[1] = system: S. pneumoniae serotype 8; test: MIC assays under standard conditions; format: cell-based, Streptococcus pneumoniae; conditions: Supplementary Table 1; cation-adjusted MHB + 5% lysed horse blood, 5% CO2, 20–24 h
Protocol: (§1) Plectasin and analogues were serially diluted in cation-adjusted Mueller–Hinton broth (MHB) in round-bottom polypropylene 96-well plates (50 µl per well). Selected bacterial strains were grown from glycerol stocks on blood agar plates. Individual colonies were inoculated in TSB and incubated at 37 °C while shaking until OD600 reached 0.5. Bacterial suspensions were then diluted 100 times in cation-adjusted MHB and distributed (50 μl per well) over the microplate containing the diluted plectasin solutions. Plates were covered by a gas-permeable adhesive membrane and incubated at 37 °C while shaking. MICs were determined by visual inspection after 16–20 h (Staphylococcus) or 20–24 h (Streptococcus). For Streptococcus strains, the broth was additionally supplemented with 5% lysed horse blood, and the microplates were incubated under 5% CO2 atmosphere. In the assays, we used the following strains: S. simulans, S. pneumoniae serotype 8, S. pneumoniae ATCC6305 and Streptococcus pyogenes M3.

[2] = system: S. pyogenes M3; test: MIC assays under standard conditions; format: cell-based, Streptococcus pyogenes; conditions: Supplementary Table 1; cation-adjusted MHB + 5% lysed horse blood, 5% CO2, 20–24 h
Protocol: as §1

[3] = Isothermal titration calorimetry with lipid II LUVs; format: binding; conditions: LUVs 2 mol% lipid II in DOPC, 37 °C
Protocol: About 200 nm large unilamellar vesicles (LUVs) were prepared from 2 mol% lipid II in DOPC by the extrusion technique. ITC measurements were conducted on a low-volume Affinity ITC (TA instruments). All measurements were conducted at 37 °C. Samples were degassed for 10 min before the ITC experiments. The cell was filled with plectasin (in 50 mM HEPES, 150 mM NaCl at pH = 7.2) and titrated with LUVs in the same buffer under constant stirring at 125 r.p.m. The data were analysed using the Nano Analyze software version 3.11.0 (TA Instruments). After baseline correction, the integrated peaks were fitted using an independent binding model. Each measurement was acquired in duplicate.

[4] = system: S. simulans 22; format: cell-based, Staphylococcus simulans; conditions: Ca^2+ variable assay
Protocol: Cation-depleted MHB was prepared as previously described[18] and supplemented with MgCl2 (0.5 mM) and ZnSO4 (10 µM). Plectasin was serially diluted twofold over a 96-well polypropylene plate. Serial dilutions of Ca^2+ in calcium-depleted medium were subsequently added to the wells containing the plectasin dilution series, followed by addition of bacterial suspensions. MICs were determined by visual inspection after 16–20 h (Staphylococcus). The effect of reduced Ca^2+ levels on S. simulans growth in the absence of plectasin was assessed by monitoring growth at 37 °C by OD600 over 18 h (Supplementary Fig. 4).

[5] = cited from earlier work
Text: Extended Data Fig. 5 Plectasin binds to bivalent cations with high affinity and its activity is enhanced by calcium ions. Representative ITC traces of the binding of bivalent cations to plectasin in solution and the effect of Mg^2+ on plectasin-lipid II binding. Heat releases and fits of Mg^2+ (A) or Ca^2+ (B) titrated to plectasin in solution. C) Calculated affinities and thermodynamic parameters experiments from (A) and (B), conducted in duplicate. Heat release traces and fits of the titration of Lipid II DOPC vesicles to plectasin without (D) and with (E) the addition of Mg^2+. F,G). Ca^2+ ...

Compound | Minimum inhibitory concentration, S. pneumoniae serotype 8 [1] | Minimum inhibitory concentration, S. pyogenes M3 [2] | lipid II binding by ITC (in words) [3] | improvement of antimicrobial activity with increasing Ca^2+ concentration [4] | increase in MIC if Ca^2+ is replaced by Mg^2+ [5]
CSCC[C@@H]1NC(=O)[C@H](CC(=O)O)NC(=O)[C@H](CC(=O)O)NC(=O)[C@H](CCC(=O)O)NC(=O)[C@H](CC(=O)O)NC(=O)[C@H](Cc2c[nH]c3ccccc23)NC(=O)[C@@H]2CCCN2C(=O)CNC(=O)[C@H](CC(N)=O)NC(=O)[C@@H](NC(=O)CNC(=O)[C@H](Cc2ccccc2)NC(=O)CN)CSSC[C@@H]2NC(=O)[C@H](Cc3ccc(O)cc3)NC(=O)CNC(=O)CNC(=O)[C@H](CCCCN)NC(=O)[C@H](Cc3ccc(O)cc3)NC(=O)CNC(=O)[C@H](CCCCN)NC(=O)[C@H](C)NC(=O)[C@H](CO)NC(=O)[C@H](CCCCN)NC(=O)[C@@H]3CSSC[C@@H](C(=O)N[C@@H](Cc4ccc(O)cc4)C(=O)O)NC(=O)[C@H](CCCCN)NC(=O)[C@H](CSSC[C@H](NC(=O)[C@H](CCC(N)=O)NC1=O)C(=O)N[C@@H](Cc1c[nH]cn1)C(=O)N[C@@H](CC(N)=O)C(=O)N[C@@H](Cc1c[nH]cn1)C(=O)N3)NC(=O)[C@H](C(C)C)NC(=O)[C@H](Cc1ccccc1)NC(=O)CNC(=O)CNC(=O)[C@H](CCCCN)NC(=O)[C@H](C)NC2=O [I22A] (H-GFGCNGPWDEDDMQCHNHCKSAKGYKGGYCAKGGFVCKCY-OH; disulfide 4-30, 15-37, 19-39 (inferred); N-terminus and C-terminus assumed) | > 25 µg/mL | > 25 µg/mL | do not bind lipid II | – | –
daptomycin [reference compound] | – | – | – | > 60 fold | > 100
